Test results as given in US20230092005A1, “COMPOSITIONS AND METHODS FOR TREATING CANCER AND TUMOR” (OBLATO, INC., priority 2020, published 2023).

What was measured:
[1] = tested on: human A549 lung cancer xenografts; assay: Anti-cancer efficacy in nude mice carrying human A549 lung cancer xenografts (tumor volume, tumor weight, growth inhibition rate); format: in vivo, BALB/c Nude mouse; settings: for Tumor weights (mean): tumors weighed at day 29; for Tumor growth inhibition rate (IR): IR=(1-T/C)x100 from mean tumor weights, day 29
Experimental: The anti-cancer efficacy of OKN-007 was assessed after oral administration in nude mice carrying human A549 lung cancer xenografts implanted subcutaneously in the flank. Human lung cancer cell line, A549 was used. […] The frozen cells were thawed in a water bath. Cells were placed in a tube containing the medium and centrifuged (1,000 rpm, 5 minutes) to discard the supernatant. After re-suspending with the culture medium, cells were placed in a cell culture flask and incubated in a 5% CO2 incubator at 37° C. Cells were sub-cultured at a ratio of 1:5 when grown with confluency of 70-80% in the culture container. Cells cultured on the day of cell line transplantation were centrifuged (1,000 rpm, 5 minutes) to discard the supernatant and to make cell suspension with D-PB S. Then, the cell suspension was mixed with Matrigel at a ratio of 1:1 (5×10^7 cells/mL). BALB/c Nude mouse, [NT]-Foxnlnu/CrlOri, SPF was used. Sex, number, age, and body weight range of animals at receipt: The mice (65 mice) were male, 5 weeks old, and had about 14.5-19.6 g weight at the receipt. Cell transplantation: After the quarantine-acclimation period, the body weight measurement and cell transplantation in healthy animals were performed. […] Prepared cell (1×10^7 cells/0.2 mL) suspension was injected subcutaneously into the right flank with disposable syringes. […] Group assignment: After transplanting cells, each tumor size was monitored for 65 animals. When tumor volume reached within 87-112 mm^3, 50 animals were assigned to the respective groups with an average tumor volume of about 99 mm^3. Based on the tumor volume, animals were selected and randomly distributed into 5 groups (10 animals/group). Dosing Route: Oral administration. The route of administration was oral because the clinical application of the test substance is oral. Method and frequency of administration: For negative control and test substance, oral administration was performed once a day for 4 weeks for a total of 28 times using a disposable syringe. For positive control, intraperitoneal administration was performed once a week for 4 weeks for a total of 4 times using a disposable syringe. Dosing Route: The dose levels of the test substance were selected at 150, 300, and 600 mg/kg. The dose level of the positive substance was selected at 2 mg/kg. The dose volume was selected at 10 mL/kg for all groups, and the individual dose was calculated based on the bodyweight of animals just prior to dosing. Measurement of tumor volume: The largest diameter (a) and the smallest diameter (b) of each tumor were measured using calipers twice a week during the observation period. The tumor volume (TV) was calculated twice a week according to the following formula: TV (mm^3)=(a (mm)×b^2 (mm^2))/2. The volume of a tumor before administration to each animal was set to the value measured at the time of group assignment. Tumor removal and measurement of body weight: After the observation period, animals were anesthetized by inhalation of isoflurane. After the tumor was extracted, the weight of the removed tumor was recorded. The tumor growth inhibition rate (IR) was calculated using the following formula: IR (%)=(1-T/C)×100, where T is a mean tumor weight in the test substance group, and positive substance group, and C is a mean tumor weight in the negative control group.

[2] = tested on: human A549 lung cancer xenografts; assay: Hematoxylin & Eosin (H&E) staining of extracted A549 xenograft tumors (necrosis grading); format: in vivo, BALB/c Nude mouse; settings: N=10
Excerpt: Histopathological test: The extracted tumors were fixed in 10% neutral buffered formalin solution (10% neutral buffered formalin). After sectioning the tumors to a certain thickness (about 3 mm), those were subjected to the general preparation procedure, embedded in paraffin, cut into 4 to 5 μm size, and tissue sections were stained with Hematoxylin and Eosin (H&E) and TUNEL. IHC (Immunohistochemistry) slides, cut into 4 to 5 μm size, were produced and sent to the sponsor (Negative Control Group (G1), Test substance 2 (G3, Animal ID Nos.: 1301, 1302, 1303, 1307, 1310), Test substance 3 (G4, Animal ID Nos.: 1401, 1402, 1404, 1408, 1409)). Determination of Hematoxylin & Eosin (H&E) staining results: Necrosis of tumors was assessed by grading (±, +, ++, +++, ++++) the extent of necrosis in the whole section of the tumor. Necrosis was evaluated by morphological changes such as collapse or disappearance of the nucleus and eosinophilic change of cytoplasm. The extent of tumor necrosis was determined by the percentage of the following necrosis area. Histopathological test (Table 7, FIGS. 7-11): The extracted fixed tumor was cut to a certain thickness (about 3 mm), then subjected to general tissue treatment, paraffin-embedded to produce blocks, and tissue sections of 4 to 5 μm in size were prepared. Then, Hematoxylin & Eosin (H&E) staining and TUNEL staining were performed.

## CC(C)(C)/[N+]([O-])=C/c1ccc(S(=O)(=O)O)cc1S(=O)(=O)O [OKN-007, Disodium 4-[(Z)-[tert-butyl(oxido)azaniumylidene]methyl]benzene-1,3-disulfonate]
[1]; G2, 150 mg/kg P.O. once a day for 4 weeks
  Tumor weights (mean): 0.47 g
[1]; G2, 150 mg/kg P.O. once a day, day 1 (before administration)
  Tumor volume (mean): 99 mm^3
[1]; G2, 150 mg/kg P.O. once a day, day 5 after administration
  Tumor volume (mean): 152 mm^3
[1]; G2, 150 mg/kg P.O. once a day, day 8 after administration
  Tumor volume (mean): 200 mm^3
[1]; G2, 150 mg/kg P.O. once a day, day 12 after administration
  Tumor volume (mean): 240 mm^3
[1]; G2, 150 mg/kg P.O. once a day, day 15 after administration
  Tumor volume (mean): 243 mm^3
[1]; G2, 150 mg/kg P.O. once a day, day 19 after administration
  Tumor volume (mean): 306 mm^3
[1]; G2, 150 mg/kg P.O. once a day, day 22 after administration
  Tumor volume (mean): 376 mm^3
[1]; G2, 150 mg/kg P.O. once a day, day 26 after administration
  Tumor volume (mean): 466 mm^3
[1]; G2, 150 mg/kg P.O. once a day, day 29 after administration
  Tumor volume (mean): 603 mm^3
[1]; G2, 150 mg/kg P.O.
  Tumor growth inhibition rate (IR): 48.9%
[1]; G3, 300 mg/kg P.O. once a day for 4 weeks
  Tumor weights (mean): 0.43 g
[1]; G3, 300 mg/kg P.O. once a day, day 1 (before administration)
  Tumor volume (mean): 99 mm^3
[1]; G3, 300 mg/kg P.O. once a day, day 5 after administration
  Tumor volume (mean): 146 mm^3
[1]; G3, 300 mg/kg P.O. once a day, day 8 after administration
  Tumor volume (mean): 172 mm^3
[1]; G3, 300 mg/kg P.O. once a day, day 12 after administration
  Tumor volume (mean): 182 mm^3
[1]; G3, 300 mg/kg P.O. once a day, day 15 after administration
  Tumor volume (mean): 212 mm^3
[1]; G3, 300 mg/kg P.O. once a day, day 19 after administration
  Tumor volume (mean): 254 mm^3
[1]; G3, 300 mg/kg P.O. once a day, day 22 after administration
  Tumor volume (mean): 310 mm^3
[1]; G3, 300 mg/kg P.O. once a day, day 26 after administration
  Tumor volume (mean): 390 mm^3
[1]; G3, 300 mg/kg P.O. once a day, day 29 after administration
  Tumor volume (mean): 460 mm^3
[1]; G3, 300 mg/kg P.O.
  Tumor growth inhibition rate (IR): 53.3%
[1]; G3, 300 mg/kg P.O., listed as test substance
  Tumor growth inhibition rate (IR): 53.5%
[1]; G4, 600 mg/kg P.O. once a day for 4 weeks
  Tumor weights (mean): 0.38 g
[1]; G4, 600 mg/kg P.O. once a day, day 1 (before administration)
  Tumor volume (mean): 99 mm^3
[1]; G4, 600 mg/kg P.O. once a day, day 5 after administration
  Tumor volume (mean): 149 mm^3
[1]; G4, 600 mg/kg P.O. once a day, day 8 after administration
  Tumor volume (mean): 176 mm^3
[1]; G4, 600 mg/kg P.O. once a day, day 12 after administration
  Tumor volume (mean): 179 mm^3
[1]; G4, 600 mg/kg P.O. once a day, day 15 after administration
  Tumor volume (mean): 209 mm^3
[1]; G4, 600 mg/kg P.O. once a day, day 19 after administration
  Tumor volume (mean): 249 mm^3
[1]; G4, 600 mg/kg P.O. once a day, day 22 after administration
  Tumor volume (mean): 288 mm^3
[1]; G4, 600 mg/kg P.O. once a day, day 26 after administration
  Tumor volume (mean): 331 mm^3
[1]; G4, 600 mg/kg P.O. once a day, day 29 after administration
  Tumor volume (mean): 407 mm^3
[1]; G4, 600 mg/kg P.O.
  Tumor growth inhibition rate (IR): 58.7%
[2]; G2, 150 mg/kg P.O.
  Necrosis grade + : number of animals: 3
  Necrosis grade ++ (moderate): number of animals: 2
  Necrosis grade +++ (marked): number of animals: 0
  Necrosis grade ++++ (severe): number of animals: 0
  Necrosis grade ± (minimal): number of animals: 5
[2]; G3, 300 mg/kg P.O.
  Necrosis grade + : number of animals: 2
  Necrosis grade ++ (moderate): number of animals: 1
  Necrosis grade +++ (marked): number of animals: 0
  Necrosis grade ++++ (severe): number of animals: 0
  Necrosis grade ± (minimal): number of animals: 7
[2]; G4, 600 mg/kg P.O.
  Necrosis grade + : number of animals: 2
  Necrosis grade ++ (moderate): number of animals: 2
  Necrosis grade +++ (marked): number of animals: 0
  Necrosis grade ++++ (severe): number of animals: 0
  Necrosis grade ± (minimal): number of animals: 6
